From EP4186488A1, “A TOPICAL COMPOSITION” (Unilever IP Holdings B.V., priority 2021, dated 2023)

The compounds below were run on Human primary melanocytes (assay: melanin content assay (MCA)). Details: 72 hours incubation with active(s), wt% of active(s) as listed per example, OD 405nm, untreated cells = 100% melanin content.
Type: cell-based
Procedure: In-vitro studies on the effect of the combination of the actives on melanin inhibition using melanin content assay (MCA) was used. The method is described below. Human primary melanocytes were grown in melanocytes growth medium (MGM) with human melanocyte growth supplement. 500 µL/well (5X10^4 cells/well) of this solution was plated in a 24 wells plate and incubated in an incubator (Thermo Scientific, Model 3111) at 37°C with 5% CO2 atmosphere. After 24 hours of incubation, cell cultures were treated with the lead actives either dissolved in water or DMSO. The cells were again incubated for 72 hours in an incubator (Thermo Scientific, Model 3111; conditions: 5% CO2, at 37°C). Comparative vehicle controls of 0.1 % (v/v) DMSO or media control (for aqueous actives) were also set up simultaneously. At the end of the incubation period, cell viability was determined using the calcein method. After calcein fluorescence readings were obtained, drained the cells and added fresh 0.15 ml of 1N NaOH (in 10% DMSO) per well. Cells were lysed by resuspension and incubation (60 °C/1 hr.). Then, 0.12 ml of this lysate was transferred to a fresh […] plate and measured OD405nm in a TECAN M1000 plate reader (estimate of relative melanin content). The spectrophotometric OD at 405nm for untreated cells (No active) is considered as 100% melanin content, with respect to this, treatment (active) percentage is calculated.
In the case of `NC(=O)c1cccnc1` [C, Niacinamide], the “% melanin inhibition” value is reported as 9.2%.
With `NC(=O)c1cccnc1` [D, Niacinamide] the “% melanin inhibition” value was 6.1%.
`CCCCCCC(O)CCCCCCCCCCC(=O)O` (stereo not shown) [E, 12-hydroxystearic acid] was tested, and the “% melanin inhibition” value was 4.1%.
`NC(=O)c1cccnc1` [B, Niacinamide] was tested, and the “% melanin inhibition” value was 7.4%.
